Data on two compounds can be found in patent publication US20260015416A1, “TREATMENT OF DRUG-RESISTANT HEPATOCELLULAR CARCINOMA” (Alentis Therapeutics AG, priority 2022, published 2026).

The subject of this assay is HCC patient-derived spheroids (primary HCC tumorspheres). Description: HCC patient-derived spheroid viability (CellTiterGlo 3D, ATP quantification). The assay is classed as cell-based, human. The conditions noted are these: HCC spheroids from 15 different HCC patients; 6 days; H3L3 10 μg/mL, sorafenib 10 μM, nivolumab 10 μg/mL; vs control mAb; FIG. 1C. The text has this:
Fragments of tumor tissue (5×5 mm to 8×8 mm size) were excised from tumor mass of HCC patients (n=15 different donors, Table 2) and then processed with enzymatic and mechanical dissociation to generate clusters of tumor cells similarly as described recently (Crouchet E, et al., Nat Commun 2021; 12:5525; Jühling F, et al., Gut 2021; 70:157-69). Aggregates of cells were assembled into spheroids in 96-well Black/Clear Bottom Low Flange Ultra-Low Attachment Microplates (Corning) and cultured in MammoCult basal medium (STEMCELL Technologies), supplemented with human proliferation supplement (3.4%), hydrocortisone (0.056%), heparin (0.011%) and 50% patients' own serum.
Tumorspheres were treated for 6 days with 10 μg/mL isotype control mAb, with 10 μg/mL anti-Claudin-1 mAb “H3L3” (Table 1), with sorafenib (10 μM, Selleckchem) or with Nivolumab (10 μg/mL, Selleckchem) with at least duplicates per condition. Tumorsphere viability was assessed at day 6 using CellTiterGlo 3D (Promega) according to the manufacturer's instructions.
In general terms: In ATP-based viability assays light output follows the ATP content of the culture.

On to `CNC(=O)c1cc(Oc2ccc(NC(=O)Nc3ccc(Cl)c(C(F)(F)F)c3)cc2)ccn1` [sorafenib, 4-[4-[[4-chloro-3-(trifluoromethyl)phenyl]carbamoylamino]phenoxy]-N -methyl-pyridine-2-carboxamide, reference compound], for which the “response rate (defined as a mean decrease in cell viability of >15%)” value was 33%.
The value for nivolumab [reference compound] was 15%.
